Several values for one entry are separate records, joined by “and”; a condition that tells them apart may be missing. Equal entries are not always repeated. Where two headings read alike, the source gives them in different places.
Legend:
[1] = HRO761 blood PK in SW48 tumour-bearing mice; format: in vivo, mouse; conditions: for concentration at 4 h / concentration at 8 h / concentration at 0.5 h / concentration at 1 h / concentration at 2 h / concentration at 24 h / AUC: female, whole blood; for concentration at 4 h / concentration at 8 h / concentration at 0.5 h / concentration at 1 h / concentration at 2 h / concentration at 24 h: Free HRO761 blood concentration
Description: (§1) All animal studies were conducted in accordance with ethics and procedures covered by permit BS-2275 and BS-1975 issued by the Kantonales Veterinäramt Basel-Stadt and in strict adherence to guidelines of the Eidgenössisches Tierschutzgesetz and the Eidgenössische Tierschutzverordnung, Switzerland. All animal studies were approved by the internal ethics committee. All animals had access to food and water ad libitum and were identified with transponders. They were housed in a specific-pathogen-free facility in IVC racks under a 12 h–12 h light–dark cycle. To establish cell-line-derived xenograft models, 6–7-week-old female athymic nude (Crl:NU(NCr)-Foxn1^nu) or SCID-BEIGE (CB17.Cg-PrkdcscidLystbg-J/Crl) mice from Charles River were engrafted subcutaneously with 5 million tumour cells in HBSS (H6648, Sigma-Aldrich). For SNU-407, Lovo, IM95, RL95.2, Ishikawa and IGROV-1, the cells were concentrated in 50% Matrigel (354234, Corning). Patient-derived xenografts were induced and expanded by transplantation as previously described. […] For the efficacy experiment, mice were randomized into groups (n = 5–6) for a mean tumour size of 100–150 mm^3. […] Blood samples were collected on day 7 and 91. […] Tumour responses are reported with the measures of tumour volumes from the treatment start. […] Animals were randomized (n = 3) and tumour samples were collected at 0, 1, 4, 8 and 24 h on the first day and then collected 4 h after the last treatment on day 3, 8, 10, 14 (including a 24 h timepoint), 17 and 21. Tumours were excised, weighed, either frozen in liquid nitrogen and cryogenic dry pulverized with the CryoPrep system (model CP-02, Covaris) or processed to FFPE after fixation. […] On day 12, blood samples were collected for PK analysis. On the last day (3 h after the last treatment), tumours were excised, weighed, frozen in liquid nitrogen and cryogenic dry pulverized for PD analysis.
PK parameters were determined by non-compartmental analysis. Intravenous bolus studies in mouse, rat and dog were performed at 1, 1 and 0.1 mg per kg respectively (Extended Data Table 1).

SNUC2A = test: CFA 10-14 day clonogenic assay; format: cell-based; conditions: Homo sapiens
LS411N = test: CFA 10-14 day clonogenic assay; format: cell-based; conditions: Homo sapiens, LS-411N
SW48 = test: cells; conditions: Homo sapiens, SW48, read-out: CFA 10-14 day assay GI50
KM12 = test: CFA 10-14 day clonogenic assay; format: cell-based; conditions: Homo sapiens
SNGM [2] = test: CFA 10-14 day clonogenic assay; format: cell-based; conditions: Homo sapiens
HEC1A = test: CFA 10-14 day clonogenic assay; format: cell-based; conditions: Homo sapiens, HEC-1-A
LS513 = test: CFA 10-14 day clonogenic assay; format: cell-based; conditions: Homo sapiens, LS-513
LS411N xenograft = test: MSI xenograft model efficacy; format: in vivo, mouse; conditions: colorectal carcinoma, 60 or 120 mg/kg
Description: as §1

[3] = test system: microsatellite-stable (MSS) cells; test: Clonogenic assay, 10-to-14-day; conditions: 10-to-14-day clonogenic assay
LS180 = test: 4 day proliferation assay (CellTiter-Glo); conditions: Homo sapiens, LS180, 96 h, read-out: 4 day assay GI50
HEC59 = test: 4 day proliferation assay (CellTiter-Glo); conditions: Homo sapiens, 96 h, read-out: 4 day assay GI50
HEC151 = test: 4 day proliferation assay (CellTiter-Glo); conditions: Homo sapiens, 96 h, read-out: 4 day assay GI50
LIM2405 = test: 4 day proliferation assay (CellTiter-Glo); conditions: Homo sapiens, 96 h, read-out: 4 day assay GI50
SNU520 = test: 4 day proliferation assay (CellTiter-Glo); conditions: Homo sapiens, 96 h, read-out: 4 day assay GI50
OC314 = test: 4 day proliferation assay (CellTiter-Glo); conditions: Homo sapiens, OC-314, 96 h, read-out: 4 day assay GI50
SNGM [4] = test: 4 day proliferation assay (CellTiter-Glo); conditions: Homo sapiens, 96 h, read-out: 4 day assay GI50

CCc1c(N2CCN(C(=O)c3ncnc(C)c3O)CC2)c(=O)n2nc(C3=CCOCC3)nc2n1CC(=O)Nc1ccc(C(F)(F)F)cc1Cl [HRO761]
Free HRO761 blood concentration ([1]; 20mg/kg po, qd, 0.5 h post treatment, single mouse): 1.505 µM and 0.703 µM and 1.278 µM | Free HRO761 blood concentration ([1]; 20mg/kg po, qd, 1 h, single mouse): 0.984 µM and 0.274 µM and 0.743 µM | Free HRO761 blood concentration ([1]; 20mg/kg po, qd, 2 h, single mouse): 0.245 µM and 0.085 µM and 0.166 µM | Free HRO761 blood concentration ([1]; 20mg/kg po, qd, 4 h, single mouse): 0.104 µM and 0.131 µM | Free HRO761 blood concentration ([1]; 20mg/kg po, qd, 8 h, single mouse): 0.145 µM and 0.122 µM | Free HRO761 blood concentration ([1]; 20mg/kg po, qd, 24 h, single mouse): 0.008 µM and 0.006 µM and 0.002 µM | Free HRO761 blood concentration ([1]; 40mg/kg, 0.5 h, single mouse): 3.970 µM and 2.544 µM | Free HRO761 blood concentration ([1]; 40mg/kg, 1 h, single mouse): 2.426 µM and 1.276 µM | Free HRO761 blood concentration ([1]; 40mg/kg, 2 h, single mouse): 0.355 µM and 0.442 µM and 0.166 µM | Free HRO761 blood concentration ([1]; 40mg/kg, 4 h, single mouse): 0.164 µM and 0.089 µM | Free HRO761 blood concentration ([1]; 40mg/kg, 8 h, single mouse): 0.251 µM and 0.168 µM | Free HRO761 blood concentration ([1]; 40mg/kg, 24 h, single mouse): 0.004 µM and 0.015 µM and 0.019 µM | Free HRO761 blood concentration ([1]; 60mg/kg, 0.5 h, single mouse): 5.178 µM and 5.802 µM and 12.609 µM | Free HRO761 blood concentration ([1]; 60mg/kg, 1 h, single mouse): 2.372 µM and 2.688 µM and 8.368 µM | Free HRO761 blood concentration ([1]; 60mg/kg, 2 h, single mouse): 0.484 µM and 0.423 µM and 1.801 µM | Free HRO761 blood concentration ([1]; 60mg/kg, 4 h, single mouse): 0.455 µM and 0.299 µM and 0.197 µM | Free HRO761 blood concentration ([1]; 60mg/kg, 8 h, single mouse): 0.237 µM and 0.241 µM | Free HRO761 blood concentration ([1]; 60mg/kg, 24 h, single mouse): 0.050 µM and 0.025 µM and 0.021 µM | Free HRO761 blood concentration ([1]; 120mg/kg, 0.5 h, single mouse): 17.511 µM and 15.342 µM | Free HRO761 blood concentration ([1]; 120mg/kg, 1 h, single mouse): 10.912 µM and 17.320 µM | Free HRO761 blood concentration ([1]; 120mg/kg, 2 h, single mouse): 3.175 µM and 5.721 µM | Free HRO761 blood concentration ([1]; 120mg/kg, 4 h, single mouse): 0.693 µM and 0.631 µM | Free HRO761 blood concentration ([1]; 120mg/kg, 8 h, single mouse): 0.515 µM and 0.718 µM | Free HRO761 blood concentration ([1]; 120mg/kg, 24 h, single mouse): 0.210 µM and 0.035 µM and 0.095 µM | concentration at 4 h ([1]; mouse, oral, 20 mg/kg, 20mg/kg po, qd, 4 h, single mouse): 176 nM | concentration at 8 h ([1]; mouse, oral, 20 mg/kg, 20mg/kg po, qd, 8 h, single mouse): 154 nM | concentration at 0.5 h ([1]; mouse, oral, 20 mg/kg, Mean, 20mg/kg po, qd, 0.5 h): 1160 nM | concentration at 1 h ([1]; mouse, oral, 20 mg/kg, Mean, 20mg/kg po, qd, 1 h): 670 nM | concentration at 2 h ([1]; mouse, oral, 20 mg/kg, Mean, 20mg/kg po, qd, 2 h): 170 nM | concentration at 4 h ([1]; mouse, oral, 20 mg/kg, Mean, 20mg/kg po, qd, 4 h): 140 nM | concentration at 8 h ([1]; mouse, oral, 20 mg/kg, Mean, 20mg/kg po, qd, 8 h): 140 nM | concentration at 24 h ([1]; mouse, oral, 20 mg/kg, Mean, 20mg/kg po, qd, 24 h): 5.15 nM | concentration at 0.5 h ([1]; mouse, oral, 40 mg/kg, Mean, 0.5 h): 3140 nM | concentration at 1 h ([1]; mouse, oral, 40 mg/kg, Mean, 1 h): 1860 nM | concentration at 2 h ([1]; mouse, oral, 40 mg/kg, Mean, 2 h): 320 nM | concentration at 4 h ([1]; mouse, oral, 40 mg/kg, Mean, 4 h): 130 nM | concentration at 8 h ([1]; mouse, oral, 40 mg/kg, Mean, 8 h): 200 nM | concentration at 24 h ([1]; mouse, oral, 40 mg/kg, Mean, 24 h): 12.9 nM | concentration at 0.5 h ([1]; mouse, oral, 40 mg/kg, 0.5 h, single mouse): 2910 nM | concentration at 1 h ([1]; mouse, oral, 40 mg/kg, 1 h, single mouse): 1890 nM | concentration at 4 h ([1]; mouse, oral, 40 mg/kg, 4 h, single mouse): 124 nM | concentration at 8 h ([1]; mouse, oral, 40 mg/kg, 8 h, single mouse): 178 nM | concentration at 0.5 h ([1]; mouse, oral, 60 mg/kg, Mean, 0.5 h): 7860 nM | concentration at 1 h ([1]; mouse, oral, 60 mg/kg, Mean, 1 h): 4480 nM | concentration at 2 h ([1]; mouse, oral, 60 mg/kg, Mean, 2 h): 900 nM | concentration at 4 h ([1]; mouse, oral, 60 mg/kg, Mean, 4 h): 320 nM | concentration at 8 h ([1]; mouse, oral, 60 mg/kg, Mean, 8 h): 250 nM | concentration at 24 h ([1]; mouse, oral, 60 mg/kg, Mean, 24 h): 32.2 nM | concentration at 8 h ([1]; mouse, oral, 60 mg/kg, 8 h, single mouse): 276 nM | concentration at 0.5 h ([1]; mouse, oral, 120 mg/kg, Mean, 0.5 h): 15900 nM | concentration at 1 h ([1]; mouse, oral, 120 mg/kg, Mean, 1 h): 13900 nM | concentration at 2 h ([1]; mouse, oral, 120 mg/kg, Mean, 2 h): 4010 nM | concentration at 4 h ([1]; mouse, oral, 120 mg/kg, Mean, 4 h): 610 nM | concentration at 8 h ([1]; mouse, oral, 120 mg/kg, Mean, 8 h): 620 nM | concentration at 24 h ([1]; mouse, oral, 120 mg/kg, Mean, 24 h): 110 nM | concentration at 0.5 h ([1]; mouse, oral, 120 mg/kg, 0.5 h, single mouse): 14800 nM | concentration at 1 h ([1]; mouse, oral, 120 mg/kg, 1 h, single mouse): 13500 nM | concentration at 2 h ([1]; mouse, oral, 120 mg/kg, 2 h, single mouse): 3120 nM | concentration at 4 h ([1]; mouse, oral, 120 mg/kg, 4 h, single mouse): 496 nM | concentration at 8 h ([1]; mouse, oral, 120 mg/kg, 8 h, single mouse): 620 nM | AUC ([1]; mouse, po, 10 mg/kg, read-out: AUCb, u above GI90, u): 0.09 µM·h | AUC ([1]; mouse, po, 20 mg/kg, read-out: AUCb, u above GI90, u): 0.52 µM·h | AUC ([1]; mouse, po, 30 mg/kg, read-out: AUCb, u above GI90, u): 2.14 µM·h | AUC ([1]; mouse, po, 40 mg/kg, read-out: AUCb, u above GI90, u): 4 µM·h | AUC ([1]; mouse, po, 60 mg/kg, read-out: AUCb, u above GI90, u): 6.08 µM·h | AUC ([1]; mouse, po, 120 mg/kg, read-out: AUCb, u above GI90, u): 27 µM·h | AUC ([1]; oral, mouse at 40 mg/kg qd, read-out: Efficacious daily AUC): 31 µM·h | GI50 (SNUC2A): 0.025 µM | GI50 (LS411N): 0.03 µM | GI50 (SW48): 0.031 µM | GI50 (KM12): 0.1 µM | GI50 (SNGM [2]): 7.29 µM | GI50 (HEC1A): ≥ 10 µM | GI50 (LS513): ≥ 10 µM | Best average response (LS411N xenograft): -100 | effect on viability [3]: no effect | GI50 (LS180): 3.5 µM | GI50 (HEC59): ≥ 10 µM | GI50 (HEC151): ≥ 10 µM | GI50 (LIM2405): 1.53 µM | GI50 (SNU520): ≥ 10 µM | GI50 (OC314): ≥ 10 µM | GI50 (SNGM [4]): ≥ 10 µM

Source: paper PMC11078746 (Nature, 2024)
